In patent publication US4064169A, “Bis-(meta-amidinophenoxy)-compounds and pharmacologically acceptable acid addition salts thereof” (Eisai Co., Ltd., priority 1976, dated 1977):
Structures can show the parent of a compound that is named as a salt.

How the values were obtained:
Type in all cases: cell-based
Trichomonas vaginalis = assay: Anti-trichomonal Test; conditions: 72 h, ASAMI medium containing 20% horse serum, 37° C., 3 days, read-out: minimal inhibitory concentration
Procedure: The compound under test was dissolved in aseptic water, and filtered aseptically to prepare a two fold dilution series. Each 2.6 ml ASAMI medium containing 20% of the horse serum were respectively taken into small test tubes. Onto the medium, there were incubated 0.3 ml of the two fold dilution solution of the compounds and 0.1 ml of the suspension of the ASAMI medium of Trichomonas vaginalis which was cultured at 37° C. for 3 days respectively. Incubation was carried out at 37° C. for 3 days to determine the minimal inhibitory concentration.

[1] = test system: Candida tropicalis AHU 3071; assay: Antifungal Test (agar dilution M.I.C.); conditions: Table 1, 27° C.
Procedure: (§1) Respective agar plates were prepared by dissolving compounds under test in aseptic water to make a two fold dilution series, taking each 1 milliliter of said diluted solutions and 9 ml of Sabouraud medium into a petri dish, and sufficiently admixing the same.
(§2) On the other hand, an inoculum was prepared by cultivating an examined fungus (microorganism) on the Sabouraud slant medium and suspending two loopful of the incubated fungus in 10 ml of sterilized physiological saline water.
(§3) One loopful of the inoculum was streaked on the above-mentioned agar plate. After the agar plate was incubated at a defined temperature for a predetermined period of time to determine the minimal inhibitory concentration (M.I.C.).
(§4) Incubation temperature:
(§5) Incubation time: 3 days (72 hours) and […]

Cryptococcus neoformans = assay: Antifungal Test (agar dilution M.I.C.); conditions: Table 1, 27° C.
Procedure: as §1, §2, §3, §4, §5

[2] = test system: Candida guilliermondii AHU 3654; assay: Antifungal Test (agar dilution M.I.C.); conditions: Meyerozyma guilliermondii, Table 1, 27° C.
Procedure: as §1, §2, §3, §4, §5

Saccharomyces cerevisiae = assay: Antifungal Test (agar dilution M.I.C.); conditions: Table 1, 27° C.
Procedure: as §1, §2, §3, §4, §5

Candida ulitis AHU 3053 = assay: Antifungal Test (agar dilution M.I.C.); conditions: Table 1, 27° C.
Procedure: as §1, §2, §3, §4, §5

[3] = test system: Candida albicans IFM 4080; assay: Antifungal Test (agar dilution M.I.C.); conditions: for MIC: Candida albicans
Procedure: as §1, §2, §3, §4
(§6) Incubation time: 3 days (72 hours) and
(§7) activity incubation conditions:
(§8) Incubation time 3 days (72 hours)
(§9) Incubation time 7 days (168 hours)
(§10) Incubation time 2 days (48 hours)

[4] = test system: yeast-like fungi such as Candida, Cryptococcus; assay: Antifungal Test (summary)
Procedure: as §1, §2, §3

[5] = test system: gram-negative bacteria such as Escherichia coli NIHJ and Escherichia coli E-15; assay: Antibacterial Test (summary); conditions: 18 h, 37° C., read-out: minimal inhibitory concentration
Procedure: (§11) A compound under test was dissolved in aseptic water to prepare a two fold dilution series. Each 1 milliliter of the solution was taken in a petri dish. Nine ml of infusion agar medium (Difco) was added to the solution, thereby preparing the agar plate for test. A pre-culture of each test strain in Tripticase soy broth medium (BBL) at 37° C. for 18 hours was streaked on the above-mentioned agar plate, and the said agar plate was incubated at 37° C. for 18 hours to determine the minimal inhibitory concentration (M.I.C.).

[6] = test system: Staphylococcus aureus 209-P, Staphylococcus aureus 13-6 and Streptococcus pyogenes; assay: Antibacterial Test (summary); conditions: 37° C., 18 hours; read-out: minimal inhibitory concentration
Procedure: as §11

[7] = test system: Candida albicans Yu-1200 IFM 4020; assay: Antifungal Test (agar dilution M.I.C.); conditions: Candida albicans
Procedure: as §1, §2, §3, §4, §6
(§12) Incubation time: 3 days (72 hours)
as §7, §8, §9, §10

[8] = test system: Candida albicans AHU 3656; assay: Antifungal Test (agar dilution M.I.C.); conditions: for MIC: Candida albicans
Procedure: as §1, §2, §3, §4, §6, §12, §7, §8, §9, §10

[9] = test system: Candida albicans NAKAGAWA IFM 4017; assay: Antifungal Test (agar dilution M.I.C.); conditions: Candida albicans
Procedure: as §1, §2, §3, §4, §6, §12, §7, §8, §9, §10

[10] = Table 1, 27° C., 3 days incubation
[11] = Table 1, 27° C., 7 days incubation

SMILES: N=C(N)c1cccc(OCC2CCC(COc3cccc(C(=N)N)c3)CC2)c1 (stereo not drawn) [Compound A, 1,4-Bis-(m,m'-amidinophenoxymethyl)-cyclohexane-dihydrochloride]
- MIC (Trichomonas vaginalis): 200 µg/mL
- MIC ([1]; AHU3071, 72 h, 3 days incubation): 3.13 µg/mL
- MIC ([1]; AHU3071, 168 h, 7 days incubation): 3.13 µg/mL
- MIC (Cryptococcus neoformans; 72 h, 3 days incubation): 3.13 µg/mL
- MIC (Cryptococcus neoformans; 168 h, 7 days incubation): 3.13 µg/mL
- MIC ([2]; AHU3654, 72 h, 3 days incubation): 25 µg/mL
- MIC ([2]; AHU3654, 168 h, 7 days incubation): 25 µg/mL
- MIC (Saccharomyces cerevisiae; 72 h, 3 days incubation): < 1.56 µg/mL
- MIC (Saccharomyces cerevisiae; 168 h, 7 days incubation): < 1.56 µg/mL
- MIC (Candida ulitis AHU 3053; AHU3053, 72 h, 3 days incubation): 3.13 µg/mL
- MIC (Candida ulitis AHU 3053; AHU3053, 168 h, 7 days incubation): 3.13 µg/mL
- MIC ([3]; IFM4080, 48 h, Table 3, 37° C., 2 days): 0.8 µg/mL
- MIC ([3]; IFM4080, 72 h, Table 3, 27° C., 3 days): 3.13 µg/mL
- MIC ([3]; IFM4080, 168 h, Table 3, 27° C., 7 days): 6.25 µg/mL
- M.I.C. [3, 10]: 3.13 µg/mL
- M.I.C. [3, 11]: 6.25 µg/mL
- M.I.C. ([3]; Table 3, 37° C., 3 days): 3.13 µg/mL
- antifungal activity [4]: excellent antifungal activity
- influence of incubation temperature on antifungal activity ([4]; 27° C. and 37° C.): not influenced by the incubation temperature
- MIC [5]: 100 to 200 µg/mL
- MIC [6]: 3.13 to 6.25 µg/mL
- MIC ([7]; YU1200IFM4020, 48 h, Table 3, 37° C., 2 days): 0.8 µg/mL
- MIC ([7]; YU1200IFM4020, 72 h, Table 1, 27° C., 3 days incubation): < 1.56 µg/mL
- MIC ([7]; YU1200IFM4020, 72 h, Table 2, 37° C., 3 days (72 hours)): 0.8 µg/mL
- MIC ([7]; YU1200IFM4020, 72 h, Table 3, 27° C., 3 days): 1.56 µg/mL
- MIC ([7]; YU1200IFM4020, 72 h, Table 3, 37° C., 3 days): 0.8 µg/mL
- MIC ([7]; YU1200IFM4020, 168 h, Table 1, 27° C., 7 days incubation): 3.13 µg/mL
- MIC ([7]; YU1200IFM4020, 168 h, Table 3, 27° C., 7 days): 3.13 µg/mL
- MIC ([8]; AHU3656, 48 h, Table 3, 37° C., 2 days): 3.13 µg/mL
- MIC ([8]; AHU3656, 72 h, Table 3, 27° C., 3 days): 3.13 µg/mL
- MIC ([8]; AHU3656, 168 h, Table 3, 27° C., 7 days): 6.25 µg/mL
- M.I.C. [8, 10]: 3.13 µg/mL
- M.I.C. [8, 11]: 6.25 µg/mL
- M.I.C. ([8]; Table 2, 37° C., 3 days (72 hours)): 3.13 µg/mL
- M.I.C. ([8]; Table 3, 37° C., 3 days): 3.13 µg/mL
- MIC ([9]; 48 h, Table 3, 37° C., 2 days): 0.8 µg/mL
- MIC ([9]; 72 h, Table 1, 27° C., 3 days incubation): 3.13 µg/mL
- MIC ([9]; 72 h, Table 2, 37° C., 3 days (72 hours)): 1.56 µg/mL
- MIC ([9]; 72 h, Table 3, 27° C., 3 days): 3.13 µg/mL
- MIC ([9]; 72 h, Table 3, 37° C., 3 days): 1.56 µg/mL
- MIC ([9]; 168 h, Table 1, 27° C., 7 days incubation): 3.13 µg/mL
- MIC ([9]; 168 h, Table 3, 27° C., 7 days): 3.13 µg/mL
